Calls of active or inactive are those of the source. The calls are words filed in the database; no cut-off is given here.
What was measured:
[1] = test system: Trypanosoma cruzi; test: (§1) Antitrypanosomal activity against Trypanosoma cruzi MHOM/Pe/2011/Arequipa DTU 5 trypomastigotes infected in Balb/c mouse assessed as reduction in parasitaemia level at 20 mg/kg, po once daily for 5 consecutive days starting from day 10 post infection measured on day 40 post infection by Neubauer chamber method; assay type: functional, organism-based
[2] = test system: Trypanosoma cruzi; test: as §1, with “23” for “40”, “method relative to control” for “method”; assay type: functional; design: scale not given: the % may be the effect or the level left
[3] = test system: Trypanosoma cruzi; test: (§2) Antitrypanosomal activity against Trypanosoma cruzi MHOM/Pe/2011/Arequipa DTU 5 trypomastigotes infected in Balb/c mouse assessed as parasite-free brain at 20 mg/kg, po pretreated once daily for 5 consecutive days starting from day 10 post infection followed by cyclophosphamide-induced immunosuppression on day 100 post infection measured on day 127 post infection by PCR method; assay type: functional
[4] = test system: Trypanosoma cruzi; test: as §2, with “oesophagus” for “brain”; assay type: functional
[5] = test system: Trypanosoma cruzi; test: as §2, with “heart” for “brain”; assay type: functional
[6] = test system: Trypanosoma cruzi; test: as §2, with “muscle” for “brain”; assay type: functional
[7] = test system: Trypanosoma cruzi; test: as §2, with “stomach” for “brain”; assay type: functional
[8] = test system: Trypanosoma cruzi; test: as §2, with “from day 75 post infection” for “from day 10 post infection”; assay type: functional
[9] = test system: Trypanosoma cruzi; test: Antitrypanosomal activity against Trypanosoma cruzi MHOM/Pe/2011/Arequipa DTU 5 trypomastigotes infected in Balb/c mouse assessed as reduction in splenomegaly at 20 mg/kg, po once daily for 5 consecutive days starting from day 75 post infection measured on day 127 post infection relative to control; assay type: functional
[10] = test system: Trypanosoma cruzi; test: Antitrypanosomal activity against Trypanosoma cruzi MHOM/Pe/2011/Arequipa DTU 5 epimastigotes assessed as reduction in DNA and RNA levels at IC25 after 72 hrs by acridine orange staining based flow cytometry relative to control; assay type: functional
[11] = Toxicity in Balb/c mouse assessed as death at 20 mg/kg, po once daily for 5 consecutive days starting from day 10 post infection; assay type: organism-based; conditions: in vivo
[12] = Toxicity in Balb/c mouse assessed as death at 20 mg/kg, po once daily for 5 consecutive days starting from day 75 post infection; assay type: organism-based; conditions: in vivo
[13] = Toxicity in Balb/c mouse assessed as reduction in body mass at 20 mg/kg, po once daily for 5 consecutive days starting from day 10 post infection relative to control; assay type: organism-based; design: scale not given: the % may be the effect or the level left; conditions: in vivo
[14] = Nephrotoxicity in Balb/c mouse infected with Trypanosoma cruzi MHOM/Pe/2011/Arequipa DTU 5 trypomastigotes assessed as decrease in serum urea level at 20 mg/kg, po once daily for 5 consecutive days starting from day 10 post infection measured on day 127 post infection relative to control; assay type: toxicity, organism-based; conditions: in vivo
[15] = Nephrotoxicity in Balb/c mouse infected with Trypanosoma cruzi MHOM/Pe/2011/Arequipa DTU 5 trypomastigotes assessed as decrease in serum uric acid level at 20 mg/kg, po once daily for 5 consecutive days starting from day 10 post infection measured on day 16 post infection relative to control; assay type: toxicity, organism-based; design: scale not given: the % may be the effect or the level left; conditions: in vivo
[16] = (§3) Hepatotoxicity in Balb/c mouse infected with Trypanosoma cruzi MHOM/Pe/2011/Arequipa DTU 5 trypomastigotes assessed as increase in ratio of serum AST to GOT level at 20 mg/kg, po once daily for 5 consecutive days starting from day 10 post infection measured on day 127 post infection by biochemical analysis relative to control; assay type: toxicity, organism-based; conditions: in vivo
[17] = as §3, with “change” for “increase”, “ALT” for “AST”, “GPT” for “GOT”, “(reference value: 49 U/L)” for “relative to control”; assay type: toxicity, organism-based; conditions: in vivo
[18] = Hepatotoxicity in Balb/c mouse infected with Trypanosoma cruzi MHOM/Pe/2011/Arequipa DTU 5 trypomastigotes assessed as increase in total bilirubin level at 20 mg/kg, po once daily for 5 consecutive days starting from day 75 post infection measured on day 81 post infection relative to control; assay type: toxicity, organism-based; conditions: in vivo
[19] = Hepatotoxicity in Balb/c mouse infected with Trypanosoma cruzi MHOM/Pe/2011/Arequipa DTU 5 trypomastigotes assessed as increase in alkaline phosphatase level at 20 mg/kg, po once daily for 5 consecutive days starting from day 75 post infection measured on day 81 post infection relative to control; assay type: toxicity, organism-based; conditions: in vivo
[20] = test system: Trypanosoma cruzi; test: Trypanocidal activity against Trypanosoma cruzi MHOM/Pe/2011/Arequipa DTU 5 epimastigotes after 72 hrs by resazurin dye based assay; assay type: functional, organism-based; conditions: MHOM/Pe/2011/Arequipa DTU 5, 72 h
[21] = test system: Trypanosoma cruzi; test: Trypanocidal activity against Trypanosoma cruzi MHOM/Pe/2011/Arequipa DTU 5 amastigotes infected in African green monkey Vero cells after 72 hrs by Giemsa-staining based microscopic assay; assay type: functional, organism-based; conditions: MHOM/Pe/2011/Arequipa DTU 5, Vero
[22] = test system: Trypanosoma cruzi; test: Trypanocidal activity against Trypanosoma cruzi MHOM/Pe/2011/Arequipa DTU 5 trypomastigotes derived from infected Balb/c mouse after 72 hrs by resazurin dye based assay; assay type: functional, organism-based; conditions: MHOM/Pe/2011/Arequipa DTU 5, 72 h
[23] = test system: Trypanosoma cruzi; test: Trypanocidal activity against Trypanosoma cruzi IRHOD/CO/2008/SN3 DTU 1 epimastigotes after 72 hrs by resazurin dye based assay; assay type: functional, organism-based; conditions: IRHOD/CO/2008/SN3 DTU 1, 72 h
[24] = test system: Trypanosoma cruzi; test: Trypanocidal activity against Trypanosoma cruzi TINF/CH/1956/Tulahuen DTU 6 epimastigotes after 72 hrs by resazurin dye based assay; assay type: functional, organism-based; conditions: TINF/CH/1956/Tulahuen DTU 6, 72 h
[25] = test system: Trypanosoma cruzi; test: Trypanocidal activity against Trypanosoma cruzi TINF/CH/1956/Tulahuen DTU 6 trypomastigotes derived from infected Balb/c mouse after 72 hrs by resazurin dye based assay; assay type: functional, organism-based; conditions: TINF/CH/1956/Tulahuen DTU 6, 72 h
[26] = test system: Vero; test: Cytotoxicity against African green monkey Vero cells assessed as reduction in cell viability after 72 hrs by resazurin dye based assay; conditions: Chlorocebus sabaeus
[27] = Selectivity index, ratio of IC50 for African green monkey Vero cells to IC50 for Trypanosoma cruzi IRHOD/CO/2008/SN3 DTU 1 epimastigotes; assay type: toxicity; conditions: read-out: Ratio IC50
[28] = Selectivity index, ratio of IC50 for African green monkey Vero cells to IC50 for Trypanosoma cruzi TINF/CH/1956/Tulahuen DTU 6 epimastigotes; assay type: toxicity; conditions: read-out: Ratio IC50
[29] = Selectivity index, ratio of IC50 for African green monkey Vero cells to IC50 for Trypanosoma cruzi TINF/CH/1956/Tulahuen DTU 6 amastigotes infected in African green monkey Vero cells; assay type: toxicity; conditions: read-out: Ratio IC50
[30] = test system: Trypanosoma cruzi; test: as §1, with “measured every 2 to 3 days up to” for “measured on”, “day 50 post infection starting from day 7” for “day 40”; assay type: functional, organism-based
[31] = Nephrotoxicity in Balb/c mouse infected with Trypanosoma cruzi MHOM/Pe/2011/Arequipa DTU 5 trypomastigotes assessed as decrease in serum uric acid level at 20 mg/kg, po once daily for 5 consecutive days starting from day 75 post infection measured on day 81 post infection relative to control; assay type: toxicity, organism-based; conditions: in vivo
[32] = as §3, with “change” for “increase”, “total bilirubin” for “ratio of serum AST to GOT”, “(reference value: 0.21 mg/dl)” for “relative to control”; assay type: toxicity, organism-based; conditions: in vivo

Row | SMILES | Activity [1] | Activity [2] [%] | Activity [3] | Activity [4] | Activity [5] | Activity [6] | Activity [7] | Activity [8] | Activity [9] | inhibition (INH) [10] [%] | Activity [11] | Activity [12] | Activity [13] [%] | Activity [14] [mg/dL] | Activity [15] [%] | Activity [16] [U/L] | Activity [17] [U/L] | Activity [18] [%] | Activity [19] [U/L] | IC50 [20] [µM] | further results
1 | O=C(Cn1ccnc1[N+](=O)[O-])NCc1ccccc1 [BENZNIDAZOLE] | Active | 70 | 33% | 33% | 33% | 33% | 33% | 55% | Active | 22.38 | Non-Toxic | Non-Toxic | > 10 | 20 to 30 | > 40 | > 40 | 49 | 30 | > 40 |  | 
2 | CCCCCCNc1c(N(C)CCCN(C)C)c(=O)c1=O |  |  | inactive | inactive | inactive | inactive | inactive | inactive | Active | 31.13 | Non-Toxic | Non-Toxic | > 10 | 10 to 20 | > 40 | 20 to 30 | 49 | 10 |  | 20.3 | IC50 [21]: 17.3 µM; IC50 [22]: 6.5 µM; IC50 [23]: 14.3 µM; IC50 [24]: 14.7 µM; IC50 [25]: 17.2 µM; IC50 [26]: 900 µM; selectivity ratio [27]: 63; selectivity ratio [28]: 61.3; selectivity ratio [29]: 23.5; Activity [30]: inactive; Activity [31]: 10 to 20 mg/dL; Activity [32]: 0.21 mg/dL
3 | CCCCCCCCCCCCCCCCNc1c(N(C)CCCN(C)C)c(=O)c1=O | Active | 80 | 67% | 67% | 67% | 67% | 67% | 78% | 55% | 49.05 | Non-Toxic | Non-Toxic | > 10 | 10 to 20 | > 40 |  | 49 | 20 | 10 to 20 | 7.3 | IC50 [21]: 0.2 µM; IC50 [22]: 4.4 µM; IC50 [23]: 16 µM; IC50 [24]: 9.5 µM; IC50 [25]: 4.7 µM; IC50 [26]: 679 µM; selectivity ratio [27]: 42.5; selectivity ratio [28]: 71.1; selectivity ratio [29]: 106; Activity [30]: Active; Activity [31]: 20 to 30 mg/dL; Activity [32]: 0.21 mg/dL
